Experimental data as given in ChEMBL document CHEMBL1201862, “PubChem BioAssay data set” (2004).
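Where inhibition never reached the appropriate level, the endpoint shown equals the highest concentration tested. Otherwise, values were interpolated linearly from a five-concentration, 48-hour dose response in 96-well plates. At the GI50, growth is halved.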 Activity calls are given as the source filed them. No stated cut-off is given here; in the data, active = GI50 up to about 1.1 µM and inactive = higher.

Experiments:
Experiment in all cases: NCI anticancer screen, dose series, 48 h
EKVX = system: EKVX
Hs-578T = system: Hs-578T
NCI-H23 = system: NCI-H23
HCT-116 = system: HCT-116
A549 = system: A549
MDA-N = system: MDA-N
ACHN = system: ACHN
IGROV-1 = system: IGROV-1
HL-60 = system: HL-60
SF-539 = system: SF-539
MOLT-4 = system: MOLT-4
A498 = system: A498
PC-3 = system: PC-3
OVCAR-3 = system: OVCAR-3
K562 = system: K562
NCI-H460 = system: NCI-H460
U-251 = system: U-251
MDA-MB-435 = system: MDA-MB-435
TK-10 = system: TK-10
HCT-15 = system: HCT-15
OVCAR-8 = system: OVCAR-8
SK-MEL-5 = system: SK-MEL-5
M14 = system: M14
OVCAR-5 = system: OVCAR-5
NCI-H226 = system: NCI-H226
SK-MEL-28 = system: SK-MEL-28
BT-549 = system: BT-549
T47D = system: T47D
SN12C = system: SN12C
MCF7 = system: MCF7
OVCAR-4 = system: OVCAR-4
UO-31 = system: UO-31
UACC-257 = system: UACC-257
CAKI-1 = system: CAKI-1
SK-OV-3 = system: SK-OV-3
LOX IMVI = system: LOX IMVI
COLO 205 = system: COLO 205
CCRF-CEM = system: CCRF-CEM
KM12 = system: KM12
UACC-62 = system: UACC-62
HOP-62 = system: HOP-62
HT-29 = system: HT-29
RXF 393 = system: RXF 393
SK-MEL-2 = system: SK-MEL-2
NCI/ADR-RES = system: NCI/ADR-RES
HOP-92 = system: HOP-92
MDA-MB-231 = system: MDA-MB-231
786-0 = system: 786-0
SF-268 = system: SF-268
SR = system: SR
SNB-75 = system: SNB-75
Malme-3M = system: Malme-3M
SF-295 = system: SF-295
SNB-19 = system: SNB-19
NCI-H522 = system: NCI-H522
SW-620 = system: SW-620
HCC 2998 = system: HCC 2998
RPMI-8226 = system: RPMI-8226
DU-145 = system: DU-145

Measured: GI50

CCCCCC(=O)OC[n+]1cccc(-c2c(COC(=O)NC(C)C)c(COC(=O)NC(C)C)c3n2CCC3)c1
56.1 µM: HCT-15
inactive: EKVX > 100 µM | Hs-578T 69.3 µM | NCI-H23 28.8 µM | HCT-116 45.3 µM | A549 70.5 µM | MDA-N > 100 µM | ACHN 23.1 µM | IGROV-1 > 34.2 µM | HL-60 10.2 µM | SF-539 27.9 µM | MOLT-4 10.4 µM | A498 15.9 µM | PC-3 44.3 µM | OVCAR-3 54.1 µM | K562 37.2 µM | NCI-H460 16.6 µM | U-251 > 61.5 µM | MDA-MB-435 > 100 µM | TK-10 > 84.1 µM | OVCAR-8 20.2 µM | SK-MEL-5 40.6 µM | M14 52.1 µM | OVCAR-5 > 63.5 µM | NCI-H226 > 64.4 µM | SK-MEL-28 > 100 µM | BT-549 38.1 µM | T47D > 61.8 µM | SN12C 30.6 µM | MCF7 31.6 µM | OVCAR-4 42.4 µM | UO-31 33.4 µM | UACC-257 > 100 µM | CAKI-1 10.5 µM | SK-OV-3 > 57.3 µM | LOX IMVI 24 µM | COLO 205 62.5 µM | CCRF-CEM 6.58 µM | KM12 > 100 µM | UACC-62 23.4 µM | HOP-62 44.1 µM | HT-29 46.9 µM | RXF 393 26.4 µM | SK-MEL-2 26.7 µM | NCI/ADR-RES 49.4 µM | HOP-92 27.4 µM | MDA-MB-231 60.4 µM | 786-0 30.7 µM | SF-268 28.5 µM | SR 5.78 µM | SNB-75 33.7 µM | Malme-3M 43.2 µM | SF-295 59 µM | SNB-19 74.3 µM | NCI-H522 15.6 µM | SW-620 31.7 µM | HCC 2998 > 100 µM | RPMI-8226 32.7 µM | DU-145 35.4 µM

Brc1ccc(/C(N=N/C(=N\Sc2ccccc2)c2ccc(Br)cc2)=N/Sc2ccccc2)cc1
inactive: EKVX > 100 µM | Hs-578T > 100 µM | NCI-H23 > 100 µM | HCT-116 > 100 µM | A549 > 100 µM | MDA-N > 100 µM | ACHN > 61.1 µM | IGROV-1 > 100 µM | HL-60 > 100 µM | SF-539 > 100 µM | MOLT-4 > 100 µM | A498 > 100 µM | PC-3 > 100 µM | OVCAR-3 > 100 µM | K562 > 100 µM | NCI-H460 > 100 µM | U-251 > 100 µM | MDA-MB-435 > 100 µM | TK-10 > 100 µM | OVCAR-8 > 100 µM | SK-MEL-5 > 100 µM | M14 > 100 µM | OVCAR-5 > 100 µM | NCI-H226 > 100 µM | SK-MEL-28 > 100 µM | BT-549 > 100 µM | T47D > 100 µM | SN12C > 100 µM | MCF7 > 100 µM | OVCAR-4 > 100 µM | UO-31 > 100 µM | UACC-257 > 100 µM | CAKI-1 > 100 µM | SK-OV-3 > 100 µM | LOX IMVI > 100 µM | COLO 205 > 100 µM | CCRF-CEM > 100 µM | KM12 > 62.1 µM | UACC-62 > 100 µM | HOP-62 > 100 µM | HT-29 > 100 µM | RXF 393 > 100 µM | SK-MEL-2 > 100 µM | NCI/ADR-RES > 100 µM | HOP-92 > 100 µM | MDA-MB-231 > 100 µM | 786-0 > 100 µM | SF-268 > 100 µM | SR > 86.9 µM | SNB-75 > 71.8 µM | Malme-3M > 100 µM | SF-295 > 100 µM | SNB-19 > 100 µM | NCI-H522 > 100 µM | SW-620 > 100 µM | HCC 2998 > 100 µM | RPMI-8226 > 100 µM | DU-145 > 100 µM
> 100 µM: HCT-15
